Measured values from patent US20230072854A1, “PARAXANTHINE-BASED BIOACTIVE COMPOSITION AND METHOD OF USE THEREOF” (Ingenious Ingredients, LP, priority 2020, published 2023).

Assay: Toxicity, LD50
Conditions: in vivo

SMILES: Cn1cnc2c1c(=O)[nH]c(=O)n2C [theobromine, reference compound]
- LD50: 1260 mg/kg
